Reference: publication PMC12155845, “Antimicrobial Activity of Copper(II), Nickel(II) and Zinc(II) Complexes with Semicarbazone and Thiosemicarbazone Ligands Derived from Substituted Salicylaldehydes” (Molecules, 2025)
Entries after “also recorded” stand apart in the source; their conditions may differ. Read-outs that look alike come from different tables or passages of the source.

Key:
pmaxGFP plasmid DNA = assay: In vitro DNA cleavage/mobility shift assay (agarose gel electrophoresis); format: biochemical; conditions: for Plasmid DNA cleavage in presence of H2O2 (in words): 100 µM of sample, 200 ng plasmid DNA, 10 mM H2O2, 37 °C, 2 h
Experimental: The nuclease activity of the metal complexes was investigated by means of gel electrophoresis after incubating the reaction mixtures (100 µM of sample and 200 ng of plasmid DNA) at 37 °C for 2 h. […] Thus, the assays with the metal complexes were performed in the absence and presence of H2O2 at 10 mM to check whether the DNA cleavage and damage take place through a hydrolytic or an oxidative mechanism.
Studies of the interactions between the metal compounds and plasmid DNA were carried out by agarose gel electrophoresis. Thus, 200 ng of pmaxGFP plasmid, 3527 bps, (Lonza, Basel, Switzerland) were incubated with the metal compounds at 100 μM in the absence or presence of 10 mM of H2O2 in Tris-HCl buffer (NaCl 50 mM, Tris-HCl 5 mM, pH 7.20). The mixture was incubated at 37 °C for 2 h, then the reactions were quenched by adding 5 μL of the loading buffer solution and analyzed by 1% agarose gel electrophoresis.

[1] = test system: HEL 299 fibroblasts (ATCC-CCL-137); assay: Cell viability and proliferation assay (WST8/CCK-8); format: cell-based, human; conditions: for Percentage values of cell viability, HEL 299: compound at 100 μM, mean and standard deviation, relative to untreated controls; for Cell proliferation, HEL 299 (Table S1): ligand at 100 μM, mean values and standard deviations
Experimental: HEL 299 cells, obtained from the American Type Culture Collection (ATCC-CCL-137), were selected to investigate the effect of the metal complexes on non-malignant human fibroblasts. Briefly, cells were cultured in Eagle’s Minimum Essential Medium (EMEM) supplemented with 10% fetal bovine serum (FBS), 100 U/mL penicillin and 100 µg/mL streptomycin at 37 °C with 5% CO2. For the biological assays, cells were grown in 96-well plates at 10^4 cells/well. After 24 h of incubation at 37 °C, the monolayer was treated with 100 µL of medium containing the 2-fold serial dilutions of the compounds in the range 100–0.19 µM. Cell viability was assessed by a colorimetric WST8-based assay according to the manufacturer’s instructions (CCK-8, Cell Counting Kit-8, Dojindo Molecular Technologies, Rockville, MD, USA) by measuring the OD at 450 nm. Data are expressed as the percentage of cell viability relative to the untreated controls. The CC50 was obtained on the corresponding dose–response curves generated as previously reported for IC50 values.

[2] = test system: Staphylococcus aureus ATCC 25923; assay: Microdilution antimicrobial assay (CLSI), S. aureus; format: cell-based; conditions: for Antimicrobial activity against S. aureus (in words): up to 100 μM; for Percentage values of microbial growth, S. aureus: compound at 100 μM, mean and standard deviation, 24 h, relative to positive controls; for Microbial growth, S. aureus (Table S1): ligand at 100 μM, mean values and standard deviations
Experimental: (§1) Reference strains of Staphylococcus aureus (ATCC 25923), Escherichia coli (ATCC 25922) and Candida albicans (ATCC 10231) were used in this study as model systems. These laboratory strains were purchased from the American Type Culture Collection (ATCC) (Manassas, VA, USA). […] The antimicrobial properties of the metal complexes were determined by a previously established microdilution method in agreement with the Clinical and Laboratory Standard Institute (CLSI) guidelines. […] The metal complexes were two-fold serially diluted and tested in the range of 100-0.19 μM. Positive controls (in regular media), negative controls (only compounds), solvent controls (DMSO dilutions) and the reference drugs were included in the tests. The plate was incubated at 37 °C for 24 h, and the OD630nm was measured.

[3] = test system: Escherichia coli ATCC 25922; assay: Microdilution antimicrobial assay (CLSI), E. coli; format: cell-based; conditions: for Percentage values of microbial growth, E. coli: mean and standard deviation, 24 h; for Microbial growth, E. coli (Table S1): ligand at 100 μM, mean values and standard deviations
Experimental: as §1

[4] = test system: human red blood cells (hRBCs); assay: Hemolytic activity assay; format: cell-based
Experimental: The hemolytic activity of the metal complexes was evaluated as the amount of hemoglobin released by the disruption of human red blood cells (hRBCs). Briefly, a suspension of hRBCs (4% w/v in PBS) was prepared from the peripheral blood of anonymous blood donors available for research purposes. […] Then, the supernatants were spectrophotometrically evaluated at OD405nm. Untreated hRBCs (in PBS) and hRBCs incubated with 1% Triton X-100 were employed as negative and positive controls, respectively. The hemolysis percentage was calculated as [OD405nm (sample) − OD405nm (negative control)]/[OD405nm (positive control) − OD405nm (negative control)] × 100. Minimal hemolytic concentrations (MHCs) were defined as the compound concentration causing 10% hemolysis.

[5] = test system: Candida albicans ATCC 10231; assay: Microdilution antifungal assay (CLSI), C. albicans; format: cell-based; conditions: for Percentage values of microbial growth, C. albicans: mean and standard deviation
Text: Reference strains of Staphylococcus aureus (ATCC 25923), Escherichia coli (ATCC 25922) and Candida albicans (ATCC 10231) were used in this study as model systems. These laboratory strains were purchased from the American Type Culture Collection (ATCC) (Manassas, VA, USA). The cultures were routinely grown on 5% blood agar plates or Sabouraud Dextrose agar plates (Biolife Italiana S.r.l., Milan, Italy) and used freshly in the assays.
The antimicrobial properties of the metal complexes were determined by a previously established microdilution method in agreement with the Clinical and Laboratory Standard Institute (CLSI) guidelines. […] The metal complexes were two-fold serially diluted and tested in the range of 100–0.19 µM. Positive controls (in regular media), negative controls (only compounds), solvent controls (DMSO dilutions) and the reference drugs were included in the tests. The plate was incubated at 37 °C for 24 h, and the OD630nm was measured.

[6] = mean values and 95% Confidence Interval, dose–response
[7] = compound at 100 μM, 1 h at 37 °C
[8] = ligand at 100 μM, mean values and standard deviations

| Molecule | Percentage values of cell viability, HEL 299 [1] [%] | Percentage values of microbial growth, E. coli ([3]; compound at 100 μM) [%] | Percentage values of hemolytic activity, hRBCs [4, 7] [%] | Percentage values of microbial growth, C. albicans ([5]; compound at 100 μM, 24 h) [%] | Percentage values of microbial growth, S. aureus [2] [%] | Cell proliferation, HEL 299 (Table S1) [1] | Microbial growth, S. aureus (Table S1) [2] | Microbial growth, E. coli (Table S1) [3] | Microbial growth, C. albicans (Table S1) [5, 8] | also measured |
| --- | --- | --- | --- | --- | --- | --- | --- | --- | --- | --- |
| N.N.[Cl][Pt][Cl] [CP, cisplatin, reference compound] |  |  |  |  |  |  |  |  |  | Binding interaction with plasmid DNA, electrophoresis mobility (in words) (pmaxGFP plasmid DNA; cisplatin at 500, 100 and 50, 37°C for 2 h, pmaxGFP): cause a shift of the electrophoresis mobility |
| CCNC(=S)N/N=C/c1cccc(OC)c1[O-].[Cl-].[Cu+2] [Compound 4] | 9.1 ± 1.1 | 110.5 ± 4.8 | <5 | 15.6 ± 5.5 |  |  |  |  |  | CC50 [1, 6]: 1.4 µM; Plasmid DNA cleavage in presence of H2O2 (in words) (pmaxGFP plasmid DNA): extensive damage to the plasmid DNA; IC50 [2, 6]: 3.5 µM; Antimicrobial activity against S. aureus (in words) [2]: completely inhibited; also recorded: good activity; also recorded: micromolar activity; IC50 [5, 6]: 54.8 µM; Antimicrobial activity against C. albicans (in words) ([5]; up to 100 μM): slightly interfered |
| COc1cccc(/C=N/NC(N)=O)c1[O-].[Cl-].[Cu+2] [Compound 5, [Cu(HL3)Cl]∙0.5H2O∙0.5CH3OH] | 20.3 ± 0.6 | 55.8 ± 0.5 | <5 | 77.8 ± 2.0 | 83.6 ± 1.4 |  |  |  |  | Plasmid DNA cleavage in presence of H2O2 (in words) (pmaxGFP plasmid DNA): degrade plasmid DNA; Antimicrobial activity against S. aureus (in words) [2]: lack of antibacterial activity; Reduction of E. coli growth compared to the untreated cells ([3]; compound at 100 μM): 44.2%; Antimicrobial activity against E. coli (in words) ([3]; up to 100 μM): lack of antibacterial activity |
| COc1cc(S(=O)(=O)[O-])cc(/C=N/NC(N)=S)c1[O-].[Cl-].[Cu+2].[Na+] [Compound 8] | 90.4 ± 0.6 | 104.1 ± 9.3 | <5 | 89.9 ± 5.3 | 106.3 ± 1.6 |  |  |  |  |  |
| CCNC(=S)N/N=C/c1cc(S(=O)(=O)[O-])cc(OC)c1[O-].[Cl-].[Cu+2].[Na+] [Compound 9] | 85.8 ± 1.7 | 96.6 ± 1.1 | <5 | 91.4 ± 2.5 | 104.8 ± 0.7 |  |  |  |  |  |
| COc1cc(S(=O)(=O)[O-])cc(/C=N/NC(N)=O)c1[O-].[Cl-].[Cu+2].[Na+] [Compound 10, [NaCu(HL6)Cl]] | 63.5 ± 3.8 | 99.8 ± 1.8 | <5 | 71.6 ± 1.3 | 97.8 ± 1.4 |  |  |  |  |  |
| CCCCCCCC(=O)N/N=C/c1cc(S(=O)(=O)[O-])cc(OC)c1[O-].[Cl-].[Cu+2].[Na+] [Compound 13, [NaCu(HL7)Cl]] | 88.7 ± 0.9 | 105.2 ± 2.0 | <5 | 81.7 ± 5.4 | 99.8 ± 3.6 |  |  |  |  | Plasmid DNA cleavage in presence of H2O2 (in words) (pmaxGFP plasmid DNA): only exception |
| CCNC(=S)N/N=C/c1cccc(OC)c1O [Compound H2L2] |  |  |  |  |  | 97.2 ± 13.2 | 96.8 ± 3.5 | 92.8 ± 3.1 | 83.3 ± 14.4 |  |
| OC(Cn1cncn1)(Cn1cncn1)c1ccc(F)cc1F [FCZ, fluconazole, reference compound] |  |  |  |  |  |  |  |  |  | Microbial growth, C. albicans (Table S1) ([5]; fluconazole): 10.0 ± 0.6; Percentage values of microbial growth, C. albicans ([5]; fluconazole at 1.6 μM): 10.0 ± 0.6% |
| COc1cc(S(=O)(=O)[O-])cc(/C=N/NC(N)=S)c1O.[Na+] [NaH2L4] |  |  |  |  |  | 85.6 ± 10.2 | 99.0 ± 3.5 | 100.2 ± 1.0 | 95.6 ± 3.2 |  |
| CCNC(=S)N/N=C/c1cc(S(=O)(=O)[O-])cc(OC)c1O.[Na+] [NaH2L5] |  |  |  |  |  | 90.0 ± 4.9 | 98.4 ± 3.0 | 107.4 ± 0.9 | 95.6 ± 7.5 |  |
| COc1cc(S(=O)(=O)[O-])cc(/C=N/NC(N)=O)c1O.[Na+] [NaH2L6] |  |  |  |  |  | 90.3 ± 0.8 | 86.5 ± 1.9 | 97.1 ± 0.7 | 85.3 ± 1.6 |  |
| CCCCCCCC(=O)N/N=C/c1cc(S(=O)(=O)[O-])cc(OC)c1O.[Na+] [NaH2L7] |  |  |  |  |  | 87.6 ± 4.9 | 102.2 ± 1.9 | 101.9 ± 1.3 | 83.2 ± 2.7 |  |
| Triton X-100 [reference compound] |  |  |  |  |  |  |  |  |  | Percentage values of hemolytic activity, hRBCs [4]: 100 ± 2.6% |
